Where two headings read alike, the source gives them in different places. Where no end group is shown, it is not given here.

The target in assay [1] is T1, HLA-DRβ1*04:01 (DR4) (Homo sapiens, UniProt P01903+P01911, A100K/A169T/F76Y/I96L/K127E/L162R/M171V/N62H/P40V/Q125Y/R42H/S133A/S149N/S66Y/V115G/V209L/W38E). As to the kind of experiment: biochemical. Type of assay: binding.
Assay [2] concerns the target T1, HLA-DRβ1*04:01 (DR4). As to the kind of experiment: biochemical. The class given is binding. This is another data set of the same source.
Another assay has as its target HLA-DR4 (Homo sapiens, UniProt P01903+P01911, A100K/A169T/F76Y/I96L/K127E/L162R/M171V/N62H/P40V/Q125Y/R42H/S133A/S149N/S66Y/V115G/V209L/W38E). The note with it: binding to HLA-DR4, previously reported; read-out: IC50, competition binding assay; cited from earlier work.
The mark [3] stands for this setting: IC50, competition binding assay.

Consider `CC(C)[C@H](NC(=O)[C@H](CC(N)=O)NC(=O)[C@@H]1CCCN1C(=O)[C@H](CC(N)=O)NC(=O)[C@H](C)NC(=O)[C@H](CC(N)=O)NC(=O)[C@@H]1CCCN1C(=O)[C@H](CC(=O)O)NC(=O)[C@@H](NC(=O)[C@H](CC(N)=O)NC(=O)[C@@H]1CCCN1C(=O)[C@H](CC(N)=O)NC(=O)[C@H](C)NC(=O)[C@H](CC(N)=O)NC(=O)[C@@H]1CCCN1C(=O)[C@@H](N)CC(=O)O)C(C)C)C(=O)O` [T1, reference compound], for which the IC50 at HLA-DRβ1*04:01 (DR4) [1] (IC50, binding to DRβ1*04:01) was about 18 µM.

In turn, Ac-ANSLSTEWSPCSVT-NH2 [Q332A] displayed a 50% inhibitory concentration (IC50) at HLA-DRβ1*04:01 (DR4) [1] of 1.19 µM.

As for Ac-LSTEWSPCS-NH2 [QN-335-343], 75.8 µM corresponded to half-maximal inhibition at HLA-DRβ1*04:01 (DR4) [1] (IC50).

As to Ac-QASLSTEWSPCSVT-NH2 [N333A], inhibition at HLA-DRβ1*04:01 (DR4) [1] was half-maximal at 2.65 µM (IC50). In turn, Ac-QNALSTEWSPCSVT-NH2 [S334A] displayed an IC50 against HLA-DRβ1*04:01 (DR4) [1] of 1.14 µM. With Ac-QNSASTEWSPCSVT-NH2 [L335A], the half-inhibitory concentration (IC50) against HLA-DRβ1*04:01 (DR4) [1] was 68.4 µM. With Ac-QNSLATEWSPCSVT-NH2 [S336A], on HLA-DRβ1*04:01 (DR4) [1], the concentration for half-maximal inhibition (IC50) is 0.91 µM. For the compound Ac-QNSLSAEWSPCSVT-NH2 [T337A], it took 1.3 µM to reach half-maximal inhibition at HLA-DRβ1*04:01 (DR4) [1] (IC50). Same read-out and setting: next, Ac-QNSLSTAWSPCSVT-NH2 [E338A]: 3.4 µM; Ac-QNSLSTEASPCSVT-NH2 [W339A]: 1.42 µM; Ac-QNSLSTEWAPCSVT-NH2 [S340A]: 24.6 µM. Regarding Ac-QNSLSTEWSACSVT-NH2 [P341A], it took 7.75 µM to reach half-maximal inhibition at HLA-DRβ1*04:01 (DR4) [1] (IC50). The same measure, in the same setting: with Ac-QNSLSTEWSPASVT-NH2 [C342A] the figure was 0.73 µM; with Ac-QNSLSTEWSPCAVT-NH2 [S343A], 0.7 µM. Same read-out and setting: next, Ac-QNSLSTEWSPCS-NH2 [QN-332-343]: 5.58 µM. For the compound Ac-QNSLSTEWSPCSAT-NH2 [V344A], the IC50 against HLA-DRβ1*04:01 (DR4) [1] was 0.44 µM. The same measure, in the same setting: next, Ac-QNSLSTEWSPCSVA-NH2 [T345A]: 0.71 µM; Ac-SLSTEWSPCSVT-NH2 [QN-334-345]: 2.82 µM. In turn, Ac-STEWSPCS-NH2 [QN-336-343] displayed an IC50 against HLA-DRβ1*04:01 (DR4) [1] of 6740 µM. Consider QNSLSTEWSPCSVT [QNT-5], for which the Kd on HLA-DRβ1*04:01 (DR4) [2] (apparent equilibrium binding affinity, […], DR-ELISA, read-out: Kd (nM) DM+) came to 714.1 ± 3.9 nM; at HLA-DRβ1*04:01 (DR4) [2] (apparent equilibrium binding affinity, […], DR-ELISA, read-out: Kd (nM) DM-) it was 504 ± 86.2 nM. For the same compound, the concentration for half-maximal inhibition (IC50) against HLA-DRβ1*04:01 (DR4) [1] (IC50 (quoted from Table 2)) was about 0.025 µM; on HLA-DRβ1*04:01 (DR4) [1] (setting [3]) it was about 1.7 µM; against HLA-DRβ1*04:01 (DR4) [1] (IC50 range values (95% C.I.)), 1.53 to 1.85 µM.

For QNSYSTEWSPCSVT [QNT-Y], the Kd worked out at 35.7 ± 20.5 nM at HLA-DRβ1*04:01 (DR4) [2] (Kd (nM) DM+) and 25.5 ± 10.7 nM on HLA-DRβ1*04:01 (DR4) [2] (Kd (nM) DM-). The concentration for half-maximal inhibition (IC50) at HLA-DRβ1*04:01 (DR4) [1] (IC50 (quoted from Table 2)) is about 0.5 µM; on HLA-DRβ1*04:01 (DR4) [1] (setting [3]), about 0.13 µM; at HLA-DRβ1*04:01 (DR4) [1] (IC50 range values (95% C.I.)), 0.124 to 0.14 µM.

SLSTEWSPCSV [T*-5]: on HLA-DR4, the IC50 is 0.9 µM.

Usually IC50 stands for the midpoint of a concentration-inhibition curve.

(Values after publication PMC4077652, “An Unstable Th Epitope of P. falciparum Fosters Central Memory T Cells and Anti-CS Antibody Responses” (PLoS ONE, 2014).)
